Measured values from EP0326331B1, “Substituted quinolines and cinnolines” (Dow AgroSciences LLC, priority 1988, dated 1989).

Columns and labels:
Assay type in all cases: in vivo
[1] = tested on: Pseudoperonospora cubensis (downy mildew); assay: Test 1 greenhouse foliar spray screen, downy mildew on squash; details: Pseudoperonospora cubensis, foliar, Test 1, foliar spray on squash; disease control rating at 400 ppm / 100 ppm; read-out: DOWN MDEW
[2] = tested on: Twospotted spider mites (Tetranychus urticae Koch); assay: Mite/insect screen, SM; details: Tetranychus urticae, foliar, percent mortality, foliar spray on squash, read-out: SM RESULTS %; for mortality at 200 ppm: rate 200 ppm; for mortality at 400 ppm: rate 400 ppm
Outline: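 Read-out: percent mortality after standard exposure periods. Test solutions were water dilutions of compound dissolved in acetone/alcohol (50:50) with emulsifier blends; leaves were sprayed to runoff on both surfaces and air-dried for one hour before exposure.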

[3] = tested on: Venturia inaequalis (apple scab); assay: Test 1 greenhouse foliar spray screen, apple scab on apple seedling; details: Venturia inaequalis; Test 1, foliar spray on apple seedling; disease control rating at 400 ppm / 100 ppm; read-out: APPL SCAB
corn rootworm = assay: Mite/insect screen, CRW; details: percent mortality, read-out: CRW RESULTS %; for mortality at 12 ppm: CRW rate 12.00 ppm; for mortality at 24 ppm: CRW rate 24.00 ppm
Outline: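 Stock in acetone:alcohol 1:1 + TOXIMUL R 23 g/L + TOXIMUL S 13 g/L; diluted with water to indicated concentrations; mortality (%) after standard exposure.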

[4] = tested on: southern armyworm (Spodopetra eridania Cramer); assay: Mite/insect screen, SAW; details: Spodoptera eridania, foliar, percent mortality, foliar spray on squash, read-out: SAW RESULTS %; for mortality at 200 ppm: rate 200 ppm; for mortality at 400 ppm: rate 400 ppm
Outline: (§1)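 First, each compound was dissolved in an emulsifier-containing acetone/alcohol mixture and diluted with water. Next, leaves were sprayed until runoff and left to dry for an hour. For southern armyworm, two excised uninfested leaves went into a Petri dish with larvae; percent mortality followed standard exposure periods.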

[5] = tested on: Puccinia recondita tritici (leaf rust); assay: Test 1 greenhouse foliar spray screen, leaf rust on wheat; details: Puccinia recondita, foliar, Test 1, foliar spray on wheat; disease control rating at 400 ppm / 100 ppm
[6] = tested on: Cercospora beticola (leaf spot); assay: Test 1 greenhouse foliar spray screen, leaf spot on sugar beet; details: Cercospora beticola; Test 1, foliar spray on sugar beet; disease control rating at 400 ppm / 100 ppm
[7] = tested on: Erysiphe graminis tritici (powdery mildew); assay: Test 1 greenhouse foliar spray screen, powdery mildew on wheat; details: Blumeria graminis, foliar, Test 1, foliar spray on wheat; disease control rating at 400 ppm / 100 ppm; read-out: POWD MDEW
[8] = tested on: Septoria tritici (leaf blotch); assay: Test 1 greenhouse foliar spray screen, leaf blotch on wheat; details: Zymoseptoria tritici; Test 1, foliar spray on wheat; disease control rating at 400 ppm / 100 ppm; read-out: LEAF BLOT
[9] = tested on: Botrytis cinerea (gray mold); assay: Test 1 greenhouse foliar spray screen, gray mold on grape berries; details: Botrytis cinerea, foliar; Test 1, spray on grape berries; disease control rating at 400 ppm / 100 ppm
[10] = tested on: melon aphids (Aphis gossypii Glover); assay: Mite/insect screen, MA; details: Aphis gossypii, foliar, percent mortality, foliar spray on squash, read-out: MA RESULTS %; for mortality at 200 ppm: rate 200 ppm; for mortality at 400 ppm: rate 400 ppm
Outline: as §1

[11] = tested on: Pyricularia oryzae (rice blast); assay: whole plant or invertebrate; details: Pyricularia oryzae, foliar, read-out: RICE BLAST, Test 1, foliar spray on rice; disease control rating at 400 ppm / 100 ppm

c1ccc(CCOc2ccnc3ccccc23)cc1 [Example 208, 4-(2-phenylethoxy)quinoline]
pest or weed control at 400 ppm [1]: 90 to 100%
mortality at 200 ppm [2]: 10%
pest or weed control at 400 ppm [3]: 0 to 19%
mortality at 12 ppm (corn rootworm): 0%
mortality at 200 ppm [4]: 0%
pest or weed control at 400 ppm [5]: 90 to 100%
pest or weed control at 400 ppm [6]: 20 to 89%
pest or weed control at 400 ppm [7]: 90 to 100%
pest or weed control at 400 ppm [8]: 20 to 89%
pest or weed control at 400 ppm [9]: 0 to 19%
mortality at 200 ppm [10]: 10%
pest or weed control at 400 ppm [11]: 90 to 100%

Clc1ccc(CCOc2ccnc3ccccc23)cc1 [Example 211, 4-[2-(4-chlorophenyl)ethoxy]quinoline]
pest or weed control at 400 ppm [1]: 90 to 100%
mortality at 200 ppm [2]: 10%
pest or weed control at 400 ppm [3]: 0 to 19%
mortality at 12 ppm (corn rootworm): 0%
mortality at 200 ppm [4]: 0%
pest or weed control at 400 ppm [5]: 90 to 100%
pest or weed control at 400 ppm [6]: 90 to 100%
pest or weed control at 400 ppm [7]: 90 to 100%
pest or weed control at 400 ppm [8]: 90 to 100%
pest or weed control at 400 ppm [9]: 0 to 19%
mortality at 200 ppm [10]: 40%
pest or weed control at 400 ppm [11]: 90 to 100%

CC(Cc1ccccc1)Oc1ccnc2ccccc12 (stereo not drawn) [Example 213, 4-(1-methyl-2-phenylethoxy)quinoline]
pest or weed control at 400 ppm [1]: 90 to 100%
mortality at 200 ppm [2]: 0%
pest or weed control at 400 ppm [3]: 20 to 89%
mortality at 12 ppm (corn rootworm): 0%
mortality at 200 ppm [4]: 0%
pest or weed control at 400 ppm [5]: 90 to 100%
pest or weed control at 400 ppm [6]: 0 to 19%
pest or weed control at 400 ppm [7]: 20 to 89%
pest or weed control at 400 ppm [8]: 20 to 89%
pest or weed control at 400 ppm [9]: 0 to 19%
mortality at 200 ppm [10]: 0%
pest or weed control at 400 ppm [11]: 90 to 100%

CC(COc1ccnc2c(F)cccc12)c1ccccc1 (stereo not drawn) [Example 220, 4-(2-phenylpropoxy)-8-fluoroquinoline]
pest or weed control at 400 ppm [1]: 90 to 100%
mortality at 200 ppm [2]: 0%
mortality at 400 ppm [2]: 0%
pest or weed control at 400 ppm [3]: 20 to 89%
mortality at 12 ppm (corn rootworm): 0%
mortality at 24 ppm (corn rootworm): 0%
mortality at 200 ppm [4]: 0%
mortality at 400 ppm [4]: 0%
pest or weed control at 400 ppm [5]: 90 to 100%
pest or weed control at 400 ppm [6]: 0 to 19%
pest or weed control at 400 ppm [7]: 90 to 100%
pest or weed control at 400 ppm [8]: 0 to 19%
pest or weed control at 400 ppm [9]: 0 to 19%
mortality at 200 ppm [10]: 0%
mortality at 400 ppm [10]: 0%
pest or weed control at 400 ppm [11]: 20 to 89%

Fc1ccc(CCOc2ccnc3c(F)cccc23)cc1 [Example 222, 8-fluoro-4-[2-(4-fluorophenyl)ethoxy]quinoline]
pest or weed control at 400 ppm [1]: 90 to 100%
mortality at 200 ppm [2]: 0%
mortality at 400 ppm [2]: 0%
pest or weed control at 400 ppm [3]: 90 to 100%
mortality at 12 ppm (corn rootworm): 0%
mortality at 24 ppm (corn rootworm): 0%
mortality at 200 ppm [4]: 0%
mortality at 400 ppm [4]: 0%
pest or weed control at 400 ppm [5]: 90 to 100%
pest or weed control at 400 ppm [6]: 20 to 89%
pest or weed control at 400 ppm [7]: 20 to 89%
pest or weed control at 400 ppm [8]: 90 to 100%
pest or weed control at 400 ppm [9]: 0 to 19%
mortality at 200 ppm [10]: 50%
mortality at 400 ppm [10]: 40%
pest or weed control at 400 ppm [11]: 20 to 89%

COc1ccccc1CCOc1ccnc2ccccc12 [Example 229, 4-[2-(2-methoxyphenyl)ethoxy]quinoline]
pest or weed control at 400 ppm [1]: 90 to 100%
mortality at 200 ppm [2]: 50%
mortality at 400 ppm [2]: 0%
pest or weed control at 400 ppm [3]: 0 to 19%
mortality at 12 ppm (corn rootworm): 0%
mortality at 24 ppm (corn rootworm): 0%
mortality at 200 ppm [4]: 0%
mortality at 400 ppm [4]: 0%
pest or weed control at 400 ppm [5]: 90 to 100%
pest or weed control at 400 ppm [6]: 0 to 19%
pest or weed control at 400 ppm [7]: 20 to 89%
pest or weed control at 400 ppm [8]: 20 to 89%
pest or weed control at 400 ppm [9]: 0 to 19%
mortality at 200 ppm [10]: 50%
mortality at 400 ppm [10]: 0%
pest or weed control at 400 ppm [11]: 90 to 100%
